Data reported in patent publication US9512107B2, “Therapeutically active compositions and their methods of use” (Agios Pharmaceuticals, Inc., priority 2012, dated 2016).
Residue numbers refer to the chain shown, from its start.

Columns and labels:
[1] = system: U87MG pLVX-IDH2 R140Q-neo cells; test: U87MG pLVX-IDH2 R140Q-neo cell based assay, 2-HG in media by LC-MS at 48 hours; conditions: Homo sapiens, U-87 MG
Procedure, shortened: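 U87MG cells stably expressing IDH2 R140Q were seeded overnight, then exposed to compound at 0.2% final DMSO at 37 °C, 5% CO2. 2-HG in the medium was quantified by LC-MS at 48 h. Growth inhibition was read by CellTiter-Glo luminescence at 72 h.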

IDH2 R140Q = molecular target: T1, IDH2 R140Q (Homo sapiens, UniProt P48735, R140Q); test: IDH2 R140Q enzymatic assay (cofactor depletion, similar format); format: biochemical; conditions: read-out: Enz R140Q
T1 sequence (P48735 40-452 R140Q): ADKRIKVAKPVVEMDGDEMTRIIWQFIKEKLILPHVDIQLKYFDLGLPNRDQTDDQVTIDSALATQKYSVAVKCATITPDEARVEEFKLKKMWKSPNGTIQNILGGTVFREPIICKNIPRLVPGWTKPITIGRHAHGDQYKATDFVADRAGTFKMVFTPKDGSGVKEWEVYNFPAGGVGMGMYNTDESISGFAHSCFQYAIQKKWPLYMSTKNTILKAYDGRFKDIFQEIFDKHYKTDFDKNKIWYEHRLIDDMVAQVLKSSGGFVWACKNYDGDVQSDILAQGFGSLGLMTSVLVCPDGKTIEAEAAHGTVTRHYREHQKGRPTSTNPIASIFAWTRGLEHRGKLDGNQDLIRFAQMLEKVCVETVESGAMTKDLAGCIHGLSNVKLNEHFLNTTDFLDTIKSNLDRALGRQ

IDH2 R172K = molecular target: T2, IDH2 R172K (Homo sapiens, UniProt P48735, R172K); test: IDH2 R172K enzymatic assay (NADPH cofactor depletion, diaphorase/resazurin readout); format: biochemical; conditions: read-out: Enz R172K
T2 sequence (P48735 40-452 R172K): T1 sequence (P48735 40-452 R140Q) with Q101R, R133K
Procedure, shortened: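 Compound was preincubated with IDH2 R172K for 1 h at room temperature, then the reaction was started with substrate mix containing 50 μM NADPH and 6.3 mM α-KG. After another 1 h at room temperature, stop mix with diaphorase and resazurin consumed the remaining NADPH, and resorufin fluorescence was read.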

Row | SMILES | IC50 [1] [nM] | IC50 (IDH2 R140Q) [nM] | IC50 (IDH2 R172K) [nM]
1 | CC(C)Nc1nc(Nc2cncc(C#N)c2)nc(-c2ccccc2)n1 [Compound 210, 5-(4-(isopropylamino)-6-phenyl-1,3,5-triazin-2-ylamino)nicotinonitrile] | < 100 | < 100 | 100 to 1000
2 | CCCCNc1nc(Nc2ccncc2)nc(-c2ccccc2)n1 [Compound 211, N^2-butyl-6-phenyl-N^4-(pyridin-4-yl)-1,3,5-triazine-2,4-diamine] | 100 to 1000 | < 100 | 100 to 1000
3 | CC(C)CCNc1nc(Nc2ccncc2)nc(-c2ccccc2)n1 [Compound 212, N^2-isopentyl-6-phenyl-N^4-(pyridin-4-yl)-1,3,5-triazine-2,4-diamine] | < 100 | < 100 | 100 to 1000
4 | CC(C)C(C)Nc1nc(Nc2ccncc2)nc(-c2ccccc2)n1 (stereo not drawn) [Compound 213, N^2-(3-methylbutan-2-yl)-6-phenyl-N^4-(pyridin-4-yl)-1,3,5-triazine-2,4-diamine] | < 100 | < 100 | 100 to 1000
5 | CC(C)Nc1nc(Nc2ccccc2)nc(-c2ccccn2)n1 [Compound 214, N-Isopropyl-N′-phenyl-6-pyridin-2-yl-[1,3,5]triazine-2,4-diamine] | 100 to 1000 | < 100 | 100 to 1000
6 | FC(F)(F)CNc1nc(Nc2ccncc2)nc(-c2ccccc2)n1 [Compound 215, 6-phenyl-N^2-(pyridin-4-yl)-N^4-(2,2,2-trifluoroethyl)-1,3,5-triazine-2,4-diamine] | 100 to 1000 | < 100 | 1000 to 10000
7 | c1ccc(-c2nc(NCC3CC3)nc(Nc3ccncc3)n2)cc1 [Compound 216, N^2-(cyclopropylmethyl)-6-phenyl-N^4-(pyridin-4-yl)-1,3,5-triazine-2,4-diamine] | 100 to 1000 | < 100 | 100 to 1000
8 | CC1(Nc2nc(Nc3ccncc3)nc(-c3ccccc3)n2)CC1 [Compound 218, N^2-(1-methylcyclopropyl)-6-phenyl-N^4-(pyridin-4-yl)-1,3,5-triazine-2,4-diamine] | 100 to 1000 | < 100 | 1000 to 10000
9 | CC1CC1Nc1nc(Nc2ccncc2)nc(-c2ccccc2)n1 (stereo not drawn) [Compound 219, N^2-(2-methylcyclopropyl)-6-phenyl-N^4-(pyridin-4-yl)-1,3,5-triazine-2,4-diamine] | < 100 | < 100 | 100 to 1000
10 | CCC(C)CNc1nc(Nc2ccncc2)nc(-c2ccccc2)n1 (stereo not drawn) [Compound 220, N^2-(2-methylbutyl)-6-phenyl-N^4-(pyridin-4-yl)-1,3,5-triazine-2,4-diamine] | < 100 | < 100 | 100 to 1000
11 | CC1(CNc2nc(Nc3ccncc3)nc(-c3ccccc3)n2)CCCO1 (stereo not drawn) [Compound 221, N^2-((2-methyltetrahydrofuran-2-yl)methyl)-6-phenyl-N^4-(pyridin-4-yl)-1,3,5-triazine-2,4-diamine] | 100 to 1000 | 100 to 1000 | 1000 to 10000
12 | CC(C)Nc1nc(Nc2ccnc(F)c2)nc(-c2ccccc2)n1 [Compound 223, N^2-(2-fluoropyridin-4-yl)-N^4-isopropyl-6-phenyl-1,3,5-triazine-2,4-diamine] | < 100 | < 100 | < 100
13 | CCNc1cc(Nc2nc(NC(C)C)nc(-c3ccccc3)n2)ccn1 [Compound 224, N^2-(2-(ethylamino)pyridin-4-yl)-N^4-isopropyl-6-phenyl-1,3,5-triazine-2,4-diamine] | 100 to 1000 | < 100 | 100 to 1000
14 | COCCNc1nc(Nc2ccccc2)nc(-c2ccccc2)n1 [Compound 225, N^2-(2-methoxyethyl)-N^4,6-diphenyl-1,3,5-triazine-2,4-diamine] | 100 to 1000 | < 100 | 1000 to 10000
15 | CC(C)Nc1nc(Nc2ccncc2)nc(-c2ccccc2Cl)n1 [Compound 226, 6-(2-chlorophenyl)-N^2-isopropyl-N^4-(pyridin-4-yl)-1,3,5-triazine-2,4-diamine] | 100 to 1000 | < 100 | 100 to 1000
16 | CC(C)Nc1nc(Nc2ccncc2)nc(-c2ccccc2F)n1 [Compound 227, 6-(2-fluorophenyl)-N^2-isopropyl-N^4-(pyridin-4-yl)-1,3,5-triazine-2,4-diamine] | < 100 | < 100 | 100 to 1000

Row | SMILES | IC50 [1] [nM] | IC50 (IDH2 R140Q) [nM] | IC50 (IDH2 R172K) [nM]
17 | CC(C)Nc1nc(Nc2ccccc2)nc(-c2cc(Cl)ccn2)n1 [Compound 228, 6-(4-chloropyridin-2-yl)-N^2-isopropyl-N^4-phenyl-1,3,5-triazine-2,4-diamine] | 100 to 1000 | < 100 | 100 to 1000
18 | CC(C)Nc1nc(Nc2ccccc2)nc(-c2cccc(Cl)n2)n1 [Compound 229, 6-(6-chloropyridin-2-yl)-N^2-isopropyl-N^4-phenyl-1,3,5-triazine-2,4-diamine] | < 100 | < 100 | < 100
19 | CC(C)Nc1nc(Nc2ccccc2)nc(-c2ncccc2Cl)n1 [Compound 230, 6-(3-chloropyridin-2-yl)-N^2-isopropyl-N^4-phenyl-1,3,5-triazine-2,4-diamine] | 100 to 1000 | 100 to 1000 | 100 to 1000
20 | O=C(Nc1nc(Nc2ccccc2)nc(-c2ccccc2)n1)OCC1CC1 [Compound 232, cyclopropylmethyl 4-phenyl-6-(phenylamino)-1,3,5-triazin-2-ylcarbamate] | 100 to 1000 | < 100 | 100 to 1000
21 | O=C(Nc1nc(Nc2ccccc2)nc(-c2ccccc2)n1)C1CC1 [Compound 233, N-(4-phenyl-6-(phenylamino)-1,3,5-triazin-2-yl)cyclopropanecarboxamide] | < 100 | < 100 | 100 to 1000
22 | c1ccc(-c2nc(Nc3ccncc3)nc(NC3CCOC3)n2)cc1 (stereo not drawn) [Compound 235, 6-phenyl-N^2-(pyridin-4-yl)-N^4-(tetrahydrofuran-3-yl)-1,3,5-triazine-2,4-diamine] | 100 to 1000 | 100 to 1000 | 1000 to 10000
23 | c1ccc(-c2nc(Nc3ccncc3)nc(NC3COC3)n2)cc1 [Compound 236, N^2-(oxetan-3-yl)-6-phenyl-N^4-(pyridin-4-yl)-1,3,5-triazine-2,4-diamine] | 100 to 1000 | 100 to 1000 | 1000 to 10000
24 | c1ccc(Nc2nc(NCC3CCO3)nc(-c3ccccc3)n2)cc1 (stereo not drawn) [Compound 237, N^2-(oxetan-2-ylmethyl)-N^4,6-diphenyl-1,3,5-triazine-2,4-diamine] | 100 to 1000 | 100 to 1000 | 1000 to 10000
25 | OCCNc1nc(Nc2ccccc2)nc(-c2ccccc2)n1 [Compound 238, 2-(4-phenyl-6-(phenylamino)-1,3,5-triazin-2-ylamino)ethanol] | 100 to 1000 | 100 to 1000 | 1000 to 10000
26 | CC(C)(CO)CNc1nc(Nc2ccccc2)nc(-c2ccccc2)n1 [Compound 239, 2,2-dimethyl-3-(4-phenyl-6-(phenylamino)-1,3,5-triazin-2-ylamino)propan-1-ol] | < 100 | < 100 | 100 to 1000
27 | CC(O)CNc1nc(Nc2ccccc2)nc(-c2ccccc2)n1 (stereo not drawn) [Compound 240, 1-(4-phenyl-6-(phenylamino)-1,3,5-triazin-2-ylamino)propan-2-ol] | 100 to 1000 | < 100 | 1000 to 10000
28 | CC(CO)Nc1nc(Nc2ccccc2)nc(-c2ccccc2)n1 (stereo not drawn) [Compound 241, 2-(4-phenyl-6-(phenylamino)-1,3,5-triazin-2-ylamino)propan-1-ol] | 100 to 1000 | < 100 | 1000 to 10000
29 | CC(C)C(CO)Nc1nc(Nc2ccccc2)nc(-c2ccccc2)n1 (stereo not drawn) [Compound 242, 3-methyl-2-(4-phenyl-6-(phenylamino)-1,3,5-triazin-2-ylamino)butan-1-ol] | 100 to 1000 | 100 to 1000 | 1000 to 10000
30 | CC(C)OCC(=O)Nc1nc(Nc2ccccc2)nc(-c2ccccc2)n1 [Compound 244, 2-isopropoxy-N-(4-phenyl-6-(phenylamino)-1,3,5-triazin-2-yl)acetamide] | 1000 to 10000 | 100 to 1000 | 100 to 1000
31 | CC1(C(=O)Nc2nc(Nc3ccccc3)nc(-c3ccccc3)n2)CC1 [Compound 245] | 100 to 1000 | < 100 | 100 to 1000
